Measurements from paper PMC11582173, “Synthesis, cytotoxicity, anti-inflammatory, anti-metastatic and anti-oxidant activities of novel chalcones incorporating 2-phenoxy-N-arylacetamide and thiophene moieties: induction of apoptosis in MCF7 and HEP2 cells” (Naunyn-Schmiedeberg's Archives of Pharmacology, 2024).
“And” between values parts separate entries of the source, which are not always exact repeats. Equal values may be shown once.

Tested on: MMP9
Assay: ELISA, MMP9 concentration
Type: cell-based, human
Method: The concentrations of matrix metalloproteinase-2 (MMP2), matrix metalloproteinase-9 (MMP9), Bcl2, BAX, P53, Malondialdehyde (MDA), Glutathione (GSH), caspase 8, caspase 9 and IL-6 were measured quantitatively in 5c treated MCF7 and HEP2 cells using ELISA (Enzyme-Linked Immunosorbent Assay) (Table 4). Gelatinases are a collective word for MMP-2 and MMP-9, where MMP-2 is gelatinase-A and MMP-9 is gelatinase-B. Solid tumor invasion, metastasis, and angiogenesis have long been linked to gelatinases (Das et al. [2021]). […] Bcl2 is a crucial protein that targets apoptosis inhibition. It is regarded as a predictive biomarker or therapeutic target in the diagnosis of cancer due to its broad expression in a variety of cancers (Porter et al. [2009]). […] The pro-apoptotic protein BAX permeabilizes the mitochondrial outer membrane by changing from a cytosolic monomer to a hazardous oligomer triggering the apoptosis process (Fulda and Debatin [2006]). […] P53 transcription factor performs an essential tumor suppressor role by coordinating a wide range of physiological responses, including DNA repair, cell cycle arrest, cellular senescence, cell death, cell differentiation, and metabolism (Liebl and Hofmann [2021]). It was activated in MCF7 and HEP2-treated cells with values (4.28 and 3.109 ng/mL), respectively, compared to their controls (3.44 and 2.06 ng/mL). […]

In the case of `COc1ccc(NC(=O)COc2ccc(C=CC(=O)c3cccs3)cc2)cc1` [Compound 5c, N-(4-Methoxyphenyl)-2-(4-(3-oxo-3-(thiophen-2-yl)prop-1-en-1-yl)phenoxy)acetamide], the MMP9 concentration (5c treated HEP2 cells, untreated 564.8±41.45) was 236.5 ng/mL and 236.5 ± 24.87 ng/mL and the MMP9 concentration (5c treated MCF7 cells, untreated 588.28±24.87) was 271.6 ng/mL and 271.6 ± 58.04 ng/mL.
